Values joined by “and” are separate entries in the source; they are usually repeats but may differ in a detail not shown here. Equal values may be shown once. Inconclusive results and toxic doses are left out.
System: CD2F1 mice, L1210 leukemia ip, survival T/C
Test: NCI In Vivo Anticancer Drug Screen. Data for tumor model L1210 Leukemia (intraperitoneal) in CD2F1 (CDF1) mice
Conditions: higher = longer survival
How it was run: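 Antitumor effect is scored in animals hosting a serially transplanted tumor. Values compare compound-dosed animals against vehicle-only controls as a simple quotient.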

[1] = endpoint: mean survival time, dose: 100.0 mg/kg/injection, schedule: Q01DX009 (ip), vehicle: saline with Tween-80
[2] = endpoint: mean survival time, dose: 200.0 mg/kg/injection, schedule: Q01DX009 (ip), vehicle: saline with Tween-80
[3] = endpoint: mean survival time, dose: 12.5 mg/kg/injection, schedule: Q01DX001 (ip), vehicle: saline with Tween-80
[4] = endpoint: mean survival time, dose: 25.0 mg/kg/injection, schedule: Q01DX001 (ip), vehicle: saline with Tween-80
[5] = endpoint: mean survival time, dose: 100.0 mg/kg/injection, schedule: Q04DX003 (ip), vehicle: saline with Tween-80
[6] = endpoint: mean survival time, dose: 200.0 mg/kg/injection, schedule: Q04DX003 (ip), vehicle: saline with Tween-80
[7] = endpoint: mean survival time, dose: 400.0 mg/kg/injection, schedule: Q04DX003 (ip), vehicle: saline with Tween-80
[8] = endpoint: mean survival time, dose: 25.0 mg/kg/injection, schedule: Q01DX009 (ip), vehicle: saline with Tween-80
[9] = endpoint: mean survival time, dose: 50.0 mg/kg/injection, schedule: Q01DX009 (ip), vehicle: saline with Tween-80
[10] = endpoint: mean survival time, dose: 100.0 mg/kg/injection, schedule: Q01DX001 (ip), vehicle: saline with Tween-80
[11] = endpoint: mean survival time, dose: 200.0 mg/kg/injection, schedule: Q01DX001 (ip), vehicle: saline with Tween-80

N#C/C(=C\C1CCC2OCOC2C1)C1CCC([N+](=O)[O-])CC1 (configuration not stated)
T/C (endpoint: mean survival time, dose: 100.0 mg/kg/injection, schedule: Q04DX002 (ip), vehicle: saline with Tween-80): 97 % of control | T/C (endpoint: mean survival time, dose: 200.0 mg/kg/injection, schedule: Q04DX002 (ip), vehicle: saline with Tween-80): 87 % of control | T/C (endpoint: mean survival time, dose: 400.0 mg/kg/injection, schedule: Q04DX002 (ip), vehicle: saline with Tween-80): 91 % of control

Clc1cccc(-n2ccnc2)c1
T/C [1]: 109 % of control | T/C [2]: 113 % of control

COC12[C@@H]3N[C@@H]3CN1C1=C(C(=O)C(N3CCCC(O)C3)=C(C)C1=O)[C@@H]2COC(N)=O (some centres not stated)
T/C (endpoint: median survival time, dose: 3.0 mg/kg/injection, schedule: Q01DX001 (ip), vehicle: saline): 106 % of control | T/C (endpoint: median survival time, dose: 6.0 mg/kg/injection, schedule: Q01DX001 (ip), vehicle: saline): 111 % of control | T/C (endpoint: median survival time, dose: 12.0 mg/kg/injection, schedule: Q01DX001 (ip), vehicle: saline): 118 % of control and 98 % of control | T/C (endpoint: median survival time, dose: 24.0 mg/kg/injection, schedule: Q01DX001 (ip), vehicle: saline): 108 % of control | T/C (endpoint: median survival time, dose: 48.0 mg/kg/injection, schedule: Q01DX001 (ip), vehicle: saline): 112 % of control

COC(=O)Nc1nc2ccc(C(=O)c3cccs3)cc2[nH]1
T/C (endpoint: mean survival time, dose: 10.0 mg/kg/injection, schedule: Q04DX003 (ip), vehicle: Klucel (hydroxypropylcellulose) (HPC)): 105 % of control | T/C (endpoint: mean survival time, dose: 10.0 mg/kg/injection, schedule: Q04DX003 (ip), vehicle: other): 107 % of control | T/C (endpoint: mean survival time, dose: 20.0 mg/kg/injection, schedule: Q04DX003 (ip), vehicle: Klucel (hydroxypropylcellulose) (HPC)): 110 % of control | T/C (endpoint: mean survival time, dose: 40.0 mg/kg/injection, schedule: Q04DX003 (ip), vehicle: Klucel (hydroxypropylcellulose) (HPC)): 120 % of control | T/C (endpoint: mean survival time, dose: 40.0 mg/kg/injection, schedule: Q04DX003 (ip), vehicle: other): 110 % of control | T/C (endpoint: mean survival time, dose: 60.0 mg/kg/injection, schedule: Q04DX003 (ip), vehicle: saline): 221 % of control | T/C (endpoint: mean survival time, dose: 80.0 mg/kg/injection, schedule: Q04DX003 (ip), vehicle: Klucel (hydroxypropylcellulose) (HPC)): 98 % of control | T/C (endpoint: mean survival time, dose: 90.0 mg/kg/injection, schedule: Q04DX003 (ip), vehicle: saline): 121 % of control

Cc1cc(=O)c(Cl)cc(=O)[nH]1
T/C [3]: 95 % of control | T/C [4]: 95 % of control

O=c1[nH]cc(F)c(=O)n1C1CCCCO1 (configuration not stated)
T/C (endpoint: mean survival time, dose: 12.5 mg/kg/injection, schedule: Q01DX009 (ip), vehicle: saline): 121 % of control | T/C (endpoint: mean survival time, dose: 12.5 mg/kg/injection, schedule: Q04DX003 (ip), vehicle: saline): 98 % of control | T/C (endpoint: mean survival time, dose: 25.0 mg/kg/injection, schedule: Q04DX003 (ip), vehicle: saline): 102 % of control | T/C (endpoint: mean survival time, dose: 50.0 mg/kg/injection, schedule: Q01DX009 (ip), vehicle: saline): 156 % of control | T/C (endpoint: mean survival time, dose: 50.0 mg/kg/injection, schedule: Q04DX003 (ip), vehicle: saline): 98 % of control | T/C (endpoint: mean survival time, dose: 100.0 mg/kg/injection, schedule: Q01DX009 (ip), vehicle: saline): 175 % of control and 184 % of control | T/C (endpoint: mean survival time, dose: 100.0 mg/kg/injection, schedule: Q04DX003 (ip), vehicle: saline): 100 % of control

CC(C)(C)OC1C2C=CC1C1C2C2(Cl)C(Cl)=C(Cl)C1(Cl)C21OCCO1 (configuration not stated)
T/C (endpoint: mean survival time, dose: 41.25 mg/kg/injection, schedule: Q04DX002 (ip), vehicle: Klucel (hydroxypropylcellulose) (HPC)): 98 % of control | T/C (endpoint: mean survival time, dose: 50.0 mg/kg/injection, schedule: Q04DX002 (ip), vehicle: Klucel (hydroxypropylcellulose) (HPC)): 97 % of control | T/C (endpoint: mean survival time, dose: 82.5 mg/kg/injection, schedule: Q04DX002 (ip), vehicle: Klucel (hydroxypropylcellulose) (HPC)): 100 % of control | T/C (endpoint: mean survival time, dose: 100.0 mg/kg/injection, schedule: Q04DX002 (ip), vehicle: Klucel (hydroxypropylcellulose) (HPC)): 98 % of control | T/C (endpoint: mean survival time, dose: 165.0 mg/kg/injection, schedule: Q04DX002 (ip), vehicle: Klucel (hydroxypropylcellulose) (HPC)): 98 % of control | T/C (endpoint: mean survival time, dose: 200.0 mg/kg/injection, schedule: Q04DX002 (ip), vehicle: Klucel (hydroxypropylcellulose) (HPC)): 98 % of control | T/C (endpoint: mean survival time, dose: 330.0 mg/kg/injection, schedule: Q04DX002 (ip), vehicle: Klucel (hydroxypropylcellulose) (HPC)): 98 % of control | T/C (endpoint: mean survival time, dose: 400.0 mg/kg/injection, schedule: Q04DX002 (ip), vehicle: Klucel (hydroxypropylcellulose) (HPC)): 97 % of control

COc1ccc(/C=C(/C(=O)O)c2ccc(OC)cc2)cc1
T/C (endpoint: mean survival time, dose: 100.0 mg/kg/injection, schedule: Q01DX009 (ip), vehicle: other): 98 % of control | T/C (endpoint: mean survival time, dose: 200.0 mg/kg/injection, schedule: Q01DX009 (ip), vehicle: other): 102 % of control | T/C (endpoint: mean survival time, dose: 400.0 mg/kg/injection, schedule: Q01DX009 (ip), vehicle: other): 98 % of control

Cn1c(Cl)nc2c(Cl)nc(Cl)nc21
T/C (endpoint: mean survival time, dose: 50.0 mg/kg/injection, schedule: Q04DX003 (ip), vehicle: Klucel (hydroxypropylcellulose) (HPC)): 100 % of control | T/C (endpoint: mean survival time, dose: 100.0 mg/kg/injection, schedule: Q04DX003 (ip), vehicle: Klucel (hydroxypropylcellulose) (HPC)): 104 % of control

Cc1ccc(NS(=O)(=O)c2cccc([N+](=O)[O-])c2)cc1Cl
T/C [5]: 92 % of control | T/C [6]: 97 % of control | T/C [7]: 92 % of control

Clc1ccc(CN2COc3c(ccc4cccnc34)C2)cc1Cl
T/C (endpoint: mean survival time, dose: 12.5 mg/kg/injection, schedule: Q01DX009 (ip), vehicle: saline with Tween-80): 95 % of control and 97 % of control | T/C [8]: 92 % of control and 105 % of control | T/C [9]: 94 % of control and 105 % of control | T/C [1]: 103 % of control and 110 % of control | T/C [2]: 95 % of control | T/C (endpoint: mean survival time, dose: 400.0 mg/kg/injection, schedule: Q01DX009 (ip), vehicle: saline with Tween-80): 94 % of control

CN(C)C(=O)c1cccc(COc2ccc([N+](=O)[O-])cc2Cl)c1
T/C (endpoint: mean survival time, dose: 100.0 mg/kg/injection, schedule: Q01DX009 (ip), vehicle: saline sonified): 102 % of control | T/C [5]: 101 % of control | T/C (endpoint: mean survival time, dose: 200.0 mg/kg/injection, schedule: Q01DX009 (ip), vehicle: saline sonified): 98 % of control | T/C [6]: 103 % of control | T/C [7]: 95 % of control

O=C(COc1ccccc1)NC(=S)Nc1ccc(Cl)cc1Cl
T/C [8]: 100 % of control | T/C [9]: 100 % of control

CC(CNC(=O)C12CC3CC(CC(C3)C1)C2)NC(=O)C12CC3CC(CC(C3)C1)C2 (configuration not stated)
T/C (endpoint: median survival time, dose: 12.5 mg/kg/injection, schedule: Q01DX005 (ip), vehicle: DMSO): 101 % of control | T/C (endpoint: median survival time, dose: 25.0 mg/kg/injection, schedule: Q01DX005 (ip), vehicle: DMSO): 104 % of control | T/C (endpoint: median survival time, dose: 50.0 mg/kg/injection, schedule: Q01DX005 (ip), vehicle: DMSO): 101 % of control | T/C (endpoint: median survival time, dose: 100.0 mg/kg/injection, schedule: Q01DX005 (ip), vehicle: DMSO): 98 % of control | T/C (endpoint: median survival time, dose: 200.0 mg/kg/injection, schedule: Q01DX005 (ip), vehicle: DMSO): 101 % of control

O=c1ccn(C2CC(O)C(COC(c3ccccc3)(c3ccccc3)c3ccccc3)O2)c(=O)[nH]1 (configuration not stated)
T/C (endpoint: median survival time, dose: 12.5 mg/kg/injection, schedule: Q01DX005 (ip), vehicle: saline with Tween-80): 98 % of control and 97 % of control | T/C (endpoint: median survival time, dose: 25.0 mg/kg/injection, schedule: Q01DX005 (ip), vehicle: saline with Tween-80): 99 % of control and 92 % of control | T/C (endpoint: median survival time, dose: 50.0 mg/kg/injection, schedule: Q01DX005 (ip), vehicle: saline with Tween-80): 99 % of control and 96 % of control | T/C (endpoint: median survival time, dose: 100.0 mg/kg/injection, schedule: Q01DX005 (ip), vehicle: saline with Tween-80): 100 % of control and 96 % of control | T/C (endpoint: median survival time, dose: 200.0 mg/kg/injection, schedule: Q01DX005 (ip), vehicle: saline with Tween-80): 100 % of control and 98 % of control

Nc1ncc(N)c(N)n1
T/C (endpoint: mean survival time, dose: 250.0 mg/kg/injection, schedule: Q04DX003 (ip), vehicle: saline sonified): 102 % of control | T/C (endpoint: mean survival time, dose: 500.0 mg/kg/injection, schedule: Q04DX003 (ip), vehicle: saline sonified): 98 % of control | T/C (endpoint: mean survival time, dose: 1000.0 mg/kg/injection, schedule: Q04DX003 (ip), vehicle: saline sonified): 103 % of control

O=c1[nH][nH]c(=O)c2c1oc1c(=O)[nH][nH]c(=O)c12
T/C [4]: 104 % of control | T/C (endpoint: mean survival time, dose: 50.0 mg/kg/injection, schedule: Q01DX001 (ip), vehicle: saline with Tween-80): 92 % of control

CC1CC[N-]CC1.CC1CC[N-]CC1.[Cl][Pt+2][Cl]
T/C (endpoint: mean survival time, dose: 6.25 mg/kg/injection, schedule: Q01DX001 (ip), vehicle: saline with Tween-80): 101 % of control | T/C [3]: 111 % of control | T/C [4]: 112 % of control

CCOC(=O)Cc1cnc(SC)nc1Nc1ccc(F)cc1
T/C [10]: 90 % of control | T/C [11]: 95 % of control

O=C1C(c2ccccc2)=C(c2ccccc2)C(c2ccccc2)=C1c1ccccc1
T/C [9]: 95 % of control | T/C [10]: 97 % of control | T/C [1]: 91 % of control | T/C [11]: 87 % of control | T/C [2]: 88 % of control | T/C (endpoint: mean survival time, dose: 400.0 mg/kg/injection, schedule: Q01DX001 (ip), vehicle: saline with Tween-80): 91 % of control

Cc1ccccc1N=Nc1ccc(O)cc1
T/C [9]: 105 % of control | T/C [10]: 103 % of control | T/C [1]: 100 % of control | T/C [11]: 92 % of control | T/C [2]: 103 % of control
